Reference: article PMC7385626 (Scientific Reports, 2020)
Values joined by “and” are separate entries in the source; they are usually repeats but may differ in a detail not shown here. Equal entries are not always repeated.

Assays:
[1] = system: HeLa, HT29, C6 and Vero cells; assay: BrdU Cell Proliferation Assay, range over the cell lines; assay type: cell-based; conditions: BrdU assay
From the text: (§1) The antiproliferative activities of Ag(I) molecules and the starting molecules of the parent molecules, N-bishydeten and [Ag(CN)2]^− compound, on cells, were monitored utilizing by the BrdU Cell Proliferation Assay (BCPA) (Fig. 6).
(§2) The antiproliferative activity of the 2, 3, 4, [Ag(CN)2]^− and 5FU against various cell lines (HeLa ATCC CCL-2, C6 cells ATCC CCL-107, HT29 ATCC HTB-38, and Vero ATCC CCL-81) were preserved and maintained in Dulbecco’s modified eagle’s medium, supplemented with %2 antibiotic (Streptomycin-Penicillin) solution and 10% fetal bovine serum.
(§3) The cell suspension including 5×10^3 cells in 100 µL was supplied into the well cell plates (96-well cell). The therapies of these cells with 2, 3, 4 and [Ag(CN)2]^− in DMSO (max 0.1% DMSO) and 5-Florouracil (5 FU) molecule in DMSO (max 0.1% DMSO) separately at concentration 0.25, 0.50, 1.00, 1.50, 2.00, 2.50, 3.75, and 5.00 µg/mL were carried out. The last volume was adapted to 200 µL by mixture and DMEM and also incubated for 24 h at 37°C with 5% CO2. The antiproliferative activities of the 2, 3, 4 and [Ag(CN)2]^− were determined with using BrdU Cell proliferation ELISA Kit conforming to manufacturer’s assay.
(§4) IC50 values the concentration of a factor which required for other method of in vitro.

HT29 = assay: BrdU Cell Proliferation Assay (BCPA); assay type: cell-based, human; conditions: BrdU ELISA, 24 h, mean ± SD of three experiments
From the text: as §1, §2, §3, §4

HT29 cells = conditions: human
From the text: (§5) LDH activities were measurement at 492-630 nm using a microplate reader. The percentage cytotoxicity was find with using the equation, […], where experimental value is the test-molecule treated cells, and high control is Triton X-100 treated cells, and low standard or control (spontaneous LDH enzyme) is the untreated cells.

Vero = assay: BrdU Cell Proliferation Assay (BCPA); assay type: cell-based; conditions: BrdU ELISA, 24 h, normal cell line, mean ± SD of three experiments
From the text: as §1, §2, §3, §4

HeLa = assay: BrdU Cell Proliferation Assay (BCPA); assay type: cell-based; conditions: BrdU ELISA, 24 h, mean ± SD of three experiments
From the text: as §1, §2, §3, §4

C6 = assay: BrdU Cell Proliferation Assay (BCPA); assay type: cell-based; conditions: BrdU ELISA, 24 h, mean ± SD of three experiments
From the text: as §1, §2, §3, §4

in vitro = conditions: human (HT-29, HeLa), rat (C6), African green monkey (Vero)
From the text: as §5

CT-DNA = conditions: literature comparison; ref [59],[60]; cited from earlier work
S. gallinarum [2] = assay: Disc diffusion assay; assay type: cell-based, Salmonella Gallinarum
Description: (§6) Therefore, the pathogen bacterial flora and the opportunistic agents may be taken into consideration both in the management of cancer patients and in individual susceptibility to cancer. Indeed, dual acting factors with antimicrobial and antiproliferative potentials can result in improved therapeutic efficacy for cancer cell patients or reduced cancer predisposition. […]. In this study, 10 microbial cultures of this part, belonging to ten types of bacterial were used. The culture was grown in Mueller–Hinton Broth (Merck) for all the bacterial strains at 36 °C. Antimicrobial test was carried out by using disc-diffusion assay utilizing 100 µL of suspension with 10^8 CFU/mL of bacteria and 10^6 CFU/mL of yeast spread on Nutrient Agar and Potato Dextrose Agar, respectively. Also, the blank disc (Oxoid = 6 mm in diameter) was impregnated with 20 µL of each substance (105 µg/disc) and placed on the inoculated agar. Negative controls ([…]) were prepared using the same solvent (water) employed to dissolve each substance. […]. The inoculated plate was incubated at 36 °C for clinical bacterial strains. Antimicrobial activities were evaluated by obtaining the zone of inhibitory effect against the test organisms.

B. cereus DSM 4312 [3] = assay: Disc diffusion assay; assay type: cell-based, Bacillus Cereus
Description: as §6

E. aerogenes 2924 = assay: Disc diffusion assay; assay type: cell-based, Enterobacter Aerogenes
Description: as §6

St. pyogenez ATCC176 [4] = assay: Serial microdilution assay (MIC); assay type: cell-based, Steptococcus Pyogerez
Description: (§7) […]. […] Four types of gram-positive bacterial strains (St. pyogenez, B. subtilis, B. cereus, S. aureus) and five types of the gram-negative (S. enteridis, E. aerogenes, P. aeruginosa, E. coli, and S. gallinarum) were sensitive to 4 and 1. […]. The minimal inhibitory concentration value was studied for the microorganism cells, which evaluated to sensitive the substances and they tested in the disc-diffusion method. Inoculate of microorganism was prepared utilizing 12 h suspensions and broth cultures were adjusted to 0.5 McFarland turbidity standard. Each substance was dissolved in 10% dimethyl sulfoxide which diluted to the highest concentration (1000 µg/mL) for testing. […]. Also, prepared suspensions for standard microorganisms were added to each dilution in a 1:1 ratio. Growth act of microorganism cells was determined visually after incubation at 36 °C. The minimum concentration was no visible growth which was taken as the MIC.

[5] = system: bacterial strains (four gram-positive, five gram-negative); assay: Serial microdilution assay (MIC), range over the bacterial strains; assay type: cell-based
Description: as §7

S. aureus ATCC29213 [6] = assay: Serial microdilution assay (MIC); assay type: cell-based, Staphylococcus aureus
Description: as §7

E. coli 111 [7] = assay: Disc diffusion assay; assay type: cell-based, Escherichia coli
Description: as §6

P. aeruginosa ATCC9027 = assay: Serial microdilution assay (MIC); assay type: cell-based, Pseudomonas Aureginosa
Description: as §7

S. enteridis ATCC13076 [8] = assay: Disc diffusion assay; assay type: cell-based, Salmonella Enteritidis
Description: as §6

B. cereus DSM 4312 [9] = assay: Serial microdilution assay (MIC); assay type: cell-based, Bacillus Cereus
Description: as §7

B. subtilis ATCC6633 [10] = assay: Disc diffusion assay; assay type: cell-based, Bacillus Subtilis
Description: as §6

B. subtilis ATCC6633 [11] = assay: Serial microdilution assay (MIC); assay type: cell-based, Bacillus Subtilis
Description: as §7

S. aureus ATCC29213 [12] = assay: Disc diffusion assay; assay type: cell-based, Staphylococcus aureus
Description: as §6

E. aerogenes ATCC2924 = assay: Serial microdilution assay (MIC); assay type: cell-based, Enterobacter Aerogenes
Description: as §7

St. pyogenez ATCC176 [13] = assay: Disc diffusion assay; assay type: cell-based, Steptococcus Pyogerez
Description: as §6

E. coli 111 [14] = assay: Serial microdilution assay (MIC); assay type: cell-based, Escherichia coli
Description: as §7

S. gallinarum [15] = assay: Serial microdilution assay (MIC); assay type: cell-based, Salmonella Gallinarum
Description: as §7

S. enteridis ATCC13076 [16] = assay: Serial microdilution assay (MIC); assay type: cell-based, Salmonella Enteritidis
Description: as §7

BSA = BSA (Bos taurus, UniProt P02769); assay: UV–Visible absorption titration, BSA binding constant; set-up: species or system Bovine
From the text: UV–Visible absorption spectroscopy technique was also used to study interactions between BSA and 1–4. […] The some results of [BSA]/(εa − εf) = [BSA]/(εb − εf) + 1/[Kb(εb − εf)] in Fig. 9, used and also obtained. The binding constants for the 1–4 were found as 2.4 ± 0.22 × 10^4 M^−1, 4.3 ± 0.29 × 10^4 M^−1, 3.4 ± 0.23 × 10^4 M^−1 and 4.8 ± 0.29 × 10^4 M^−1, respectively. In Fig. 9, the increase in BSA concentrations leads to a change in the absorption of the complexes resulting in hypochromism for 1 and 3 and hyperchromism for 2 and 4.
To obtain the interaction act of the molecules with calf thymus DNA and also to determine the binding constants (Kb) UV–Visible absorption spectroscopy method was utilized. Indeed, 2.5 mg calf thymus DNA in this part was dissolved in Tris–HCl buffer and stabile pending seven days in the refrigerator. The concentration level of calf thymus DNA was calculated spectrophotometrically assay at 260 nm. This method was done according to previous studies.

NCCN(CCO)CCO [N-bishydeten, N, N-bis (2-hydroxyethyl) -ethylenediamine, reference compound]
antiproliferative effect (in words) ([1]; same administrative dose, data not shown): no antiproliferative effects

O=c1[nH]cc(F)c(=O)[nH]1 [5FU, 5-fluorouracil, reference compound]
IC50 (HT29; Homo sapiens, HT-29): 258 ± 21 µM | cytotoxicity against HT29 cells (LDH) (HT29 cells): 9–11% | IC50 (Vero; Chlorocebus sabaeus, Vero): 258 ± 21 µM | IC50 (HeLa; Homo sapiens, HeLa): 276 ± 17 µM | IC50 (C6; Rattus norvegicus, C6): 217 ± 19 µM | cytotoxicity (in vitro): 15 to 25% | binding constant with DNA (reported) (CT-DNA): 97000 M⁻¹

[Ni(N-bishydeten)Ag3(CN)5] [Complex 1]
inhibition zones, S. gallinarum (S. gallinarum [2]): 17 ± 0.58 mm | inhibition zones, B. cereus DSM 4312 (B. cereus DSM 4312 [3]): 20 ± 1.0 mm | inhibition zones, E. aerogenes 2924 (E. aerogenes 2924): 15 ± 1.0 mm | MIC, St. pyogenez (St. pyogenez ATCC176 [4]): 15.62 µg/mL | Minimum-inhibitory concentrations (MIC), St. pyogenez ATCC176 (St. pyogenez ATCC176 [4]): 15.62 ± 9.02 µg/mL | MIC, joint range for 4 and 1 over the strains [5]: 15.62 to 125 µg/mL | Minimum-inhibitory concentrations (MIC), S. aureus ATCC29213 (S. aureus ATCC29213 [6]): 62.50 ± 36.08 µg/mL | inhibition zones, E. coli 111 (E. coli 111 [7]): 19 ± 0.58 mm | Minimum-inhibitory concentrations (MIC), P. aeruginosa ATCC9027 (P. aeruginosa ATCC9027): 62.50 ± 18.04 µg/mL | inhibition zones, S. enteridis ATCC13076 (S. enteridis ATCC13076 [8]): 18 ± 0.58 mm | Minimum-inhibitory concentrations (MIC), B. cereus DSM 4312 (B. cereus DSM 4312 [9]): 62.50 ± 18.04 µg/mL | inhibition zones, B. subtilis ATCC6633 (B. subtilis ATCC6633 [10]): 14 ± 1.53 mm | Minimum-inhibitory concentrations (MIC), B. subtilis ATCC6633 (B. subtilis ATCC6633 [11]): 62.50 ± 0.0 µg/mL | inhibition zones, S. aureus ATCC29213 (S. aureus ATCC29213 [12]): 18 ± 0.58 mm | MIC, E. aerogenes (E. aerogenes ATCC2924): 15.62 µg/mL | Minimum-inhibitory concentrations (MIC), E. aerogenes ATCC2924 (E. aerogenes ATCC2924): 15.62 ± 0.0 µg/mL | inhibition zones, St. pyogenez ATCC176 (St. pyogenez ATCC176 [13]): 15 ± 0.0 mm | Minimum-inhibitory concentrations (MIC), E. coli 111 (E. coli 111 [14]): 62.50 ± 0.0 µg/mL | MIC, S. gallinarum (S. gallinarum [15]): 31.25 µg/mL | Minimum-inhibitory concentrations (MIC), S. gallinarum (S. gallinarum [15]): 31.25 ± 0.0 µg/mL | Minimum-inhibitory concentrations (MIC), S. enteridis ATCC13076 (S. enteridis ATCC13076 [16]): 62.50 ± 17.97 µg/mL | binding constant with BSA (BSA): 2.4 ± 0.22 × 10^4 M^−1 and 2.4 x 10^4

N.N.[Cl][Pt][Cl] [Cisplatin, cisplatin, reference compound]
IC50 (HT29): 153 ± 14 µM | IC50 (Vero): 235 ± 19 µM | IC50 (HeLa): 230 ± 15 µM | IC50 (C6): 208 ± 23 µM | IC50 ([1]; HeLa, HT29, C6, Vero): 153 to 235 µM
